Patent US20240336609A1, “PYRIDAZINONE COMPOUNDS AND USES THEREOF” (Edgewise Therapeutics, Inc., priority 2021, published 2024)

Tests used:
[1] = target: T1, skeletal myofibrils (myosin ATPase activity) (Oryctolagus cuniculus, UniProt Q28641); experiment: Skeletal Myofibril ATPase Assay (PK/LDH-coupled, NADH absorbance at 340 nm); format: biochemical; settings: Rabbit Psoas myofibrils 0.25 mg/mL, ATP 0.05 mM, 1% DMSO vehicle = 100% activity
T1 construct: Rabbit Psoas Prep 11 (0.25 mg/mL)
Description: Overview: Myosin ATPase activity was assessed by using a coupled reaction system, in which ADP generated by the myosin ATPase function was coupled to the disappearance of NADH through the pyruvate kinase/lactate dehydrogenase (PK-LDH) system. Myosin ATPase activity produces ADP, which was used as a substrate for PK to produce pyruvate and regenerate ATP. The pyruvate was then used as a substrate by LDH to oxidize NADH to NAD+. The rate of the reaction was monitored through the time-dependent disappearance of NADH using absorbance at 340 nm. Inhibition of ATPase activity by the assayed compounds was indicated by a reduced rate of NADH loss, relative to vehicle-treated controls, over the experimental time window. To assess the selectivity of the assayed compounds for skeletal myofibrils, the compounds were counter-screened in cardiac myofibrils.
Materials: The following stock solutions and reagents were used in the Skeletal Myofibril ATPase Assay:
Stock Solutions of pCa buffer. Combine PIPES, CaCl2), and EGTA solutions with 70 mL of water. Adjust pH to 7.0 and bring final volume to 100 mL.
Buffer A & Buffer B. Butters were stored on ice until use.
Skeletal Myofibril ATPase Assay Procedure: BSA, ATP, NADH, PEP, and DTT solutions were thawed at room temperature, then transferred to ice. Pellet-frozen myofibrils (approximately twice the required volume) were transferred into a sufficiently large tube and capped. Myofibrils were thawed by rolling in a water bath for approximately 15 min at room temperature and cooled on ice. Buffers A and B were prepared by adjusting volumes as necessary for required number of wells and stored on ice. 0.5 μL of the compounds to be assayed were added into wells of a 384-well plate. Buffers A and B were mixed by inversion immediately prior to use, then 25 μL of each was dispensed using a Multidrop dispenser (Buffer A first, then Buffer B). The absorbance within the wells was measured at 340 nm, using a kinetic protocol in which the wells are read every 1.5-2 min for 1 h. The reaction rate was qualitatively assessed by subtracting the minimum absorbance value from the maximum value for each well, using either the SoftMax Pro plate reader software or a spreadsheet program such as Excel. Using GraphPad Prism 8.0, the data was normalized, with 100% activity defined as the absorbance change in the 1% DMSO vehicle wells and 0% assigned to no change in absorbance over the course of the experiment. The normalized data were fit to a variable-slope four-parameter logistic model, constraining the bottom to be 0 or greater. Compounds of Table 1 to 3 were tested and results of the assay appear in Table 4 herein. A=IC50 is less than or equal to 10 μM; B=IC50 is greater than 10 μM and less than 100 μM; C=IC50 is greater than 100 μM.

[2] = test system: embryos from zebrafish model of DMD; settings: cited from earlier work

| Compound | IC50 [1] | protection of muscles from pathological muscle derangement [2] |
| --- | --- | --- |
| 2-(5-(5-(4-chloropyridin-2-yl)- 1,2,4-oxadiazol-3-yl)-2-oxopyri- din-1(2H)-yl)-N-ethylacetamide [Compound 51] | 10 to 100 µM | – |
| 6-(3-(3-chlorophenyl)-1,2,4- thiadiazol-5-yl)-2-((3-(pyridin- 3-yl)-1,2,4-oxadiazol-5-yl)- methyl)pyridazin-3(2H)-one [Compound 22] | ≥ 100 µM | – |
| 6-(5-(3-chlorophenyl)-1,2,4- thiadiazol-3-yl)-2-((3-methyl- isoxazol-5-yl)methyl)pyridazin- 3(2H)-one [Compound 27] | ≤ 10 µM | – |
| 6-(5-(5-chloropyridin-3-yl)- 1,2,4-thiadiazol-3-yl)-2-((3- methylisoxazol-5-yl)methyl)- pyridazin-3(2H)-one [Compound 28] | ≥ 100 µM | – |
| Cc1ccc(S(=O)(=O)NCc2ccccc2)cc1 [N-benzyl-p-tolyl-sulfonamide (BTS), N-benzyl-p-tolyl-sulfonamide] | – | protect muscles from pathological muscle derangement |
| N-ethyl-2-(5-(5-morpholino- 1,2,4-thiadiazol-3-yl)-2-oxo- pyridin-1(2H)-yl)acetamide [Compound 11] | 10 to 100 µM | – |
| N-ethyl-2-(6-oxo-3-(5-(5- (trifluoromethyl)pyridin-3-yl)- 1,2,4-thiadiazol-3-yl)pyridazin- 1(6H)-yl)acetamide [Compound 19] | ≥ 100 µM | – |
